From publication PMC4589676, “Functional characterization and stability improvement of a ‘thermophilic-like’ ene-reductase from Rhodococcus opacus 1CP” (Frontiers in Microbiology, 2015)
Values belong to the molecule of their own block, whether it stands above or below them.

Experiments:
OYERo2 [1] = biological target: T1, OYERo2 (Rhodococcus opacus, UniProt A0A1B1KA86); assay: flavin absorption spectra (charge-transfer complex); assay type: binding; conditions: phenolic ligand
T1 construct: gene O4328_33150; full length, N-terminal His10-tag kept, codon-optimised synthetic gene (1101 bp) in pET16bP, E. coli BL21 (DE3); 387 residues, theoretical 41,615 Da; variant OYERo2a is GenBank KR349312
Text: flavin absorption spectra (charge-transfer complex) on OYERo2 | OYERo2 forms charge-transfer complexes with phenolic ligands. Next to 4-hydroxybenzaldehyde

OYERo2 [2] = biological target: T2, OYERo2 (Rhodococcus opacus, UniProt A0A1B1KA86, A92R/Q93R/L94I/E95R/Y96E); assay: absorption spectra and RP-HPLC of extracted flavin; assay type: binding; conditions: variant OYERo2a; same
T2 construct: gene O4328_33150; full length, N-terminal His10-tag kept, codon-optimised synthetic gene (1101 bp) in pET16bP, E. coli BL21 (DE3); 387 residues, theoretical 41,615 Da; variant OYERo2a is GenBank KR349312

OYERo2 [3] = biological target: T1, OYERo2; assay: absorption spectra and RP-HPLC of extracted flavin; assay type: binding; conditions: non-covalent, 1:1, co-purified
[4] = biological target: OYERo2, ene-reductase (old yellow enzyme) from Rhodococcus opacus 1CP (Rhodococcus opacus 1CP); assay: SEC; analytical gel filtration, Superdex 200 HR 10/30, room temperature, 50 mM phosphate buffer pH 7.1 with 150 mM NaCl; 30 uM enzyme, elution buffer with 200 uM NADPH
[5] = biological target: OYERo2, ene-reductase (old yellow enzyme) from Rhodococcus opacus 1CP (Rhodococcus opacus 1CP); assay: SEC; analytical gel filtration, Superdex 200 HR 10/30, room temperature, 50 mM phosphate buffer pH 7.1 with 150 mM NaCl; high protein concentration (119 uM for OYERo2)
[6] = biological target: OYERo2, ene-reductase (old yellow enzyme) from Rhodococcus opacus 1CP (Rhodococcus opacus 1CP); assay: SEC; analytical gel filtration, Superdex 200 HR 10/30, room temperature, 50 mM phosphate buffer pH 7.1 with 150 mM NaCl; lower protein concentration (59 and 30 uM for OYERo2)

T1 sequence (A0A1B1KA86 entry or part of it): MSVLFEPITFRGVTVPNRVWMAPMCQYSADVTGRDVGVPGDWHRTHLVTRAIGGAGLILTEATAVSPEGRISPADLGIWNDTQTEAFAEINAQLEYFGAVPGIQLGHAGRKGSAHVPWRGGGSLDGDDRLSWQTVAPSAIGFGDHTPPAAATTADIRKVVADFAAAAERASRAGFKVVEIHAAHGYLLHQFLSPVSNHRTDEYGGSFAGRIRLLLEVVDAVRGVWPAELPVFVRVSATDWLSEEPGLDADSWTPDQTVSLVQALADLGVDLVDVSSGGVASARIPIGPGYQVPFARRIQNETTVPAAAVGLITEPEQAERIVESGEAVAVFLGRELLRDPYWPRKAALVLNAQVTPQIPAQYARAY
T2 sequence (A0A1B1KA86 entry or part of it A92R/Q93R/L94I/E95R/Y96E): as the sequence (A0A1B1KA86 entry or part of it) above, with A92R, Q93R, L94I, E95R, Y96E counted along it

Molecule: O=Cc1ccc(O)cc1 [4-hydroxybenzaldehyde]
- flavin absorption spectra (charge-transfer complex) (OYERo2 [1]): OYERo2 forms charge-transfer complexes with phenolic ligands. Next to 4-hydroxybenzaldehyde

Molecule: Cc1cc2nc3c(=O)[nH]c(=O)nc-3n(C[C@H](O)[C@H](O)[C@H](O)COP(=O)(O)O)c2cc1C [FMN]
- absorption spectra and RP-HPLC of extracted flavin (OYERo2 [2]): RP-HPLC on flavin samples extracted from purified OYERo2 and OYERo2a
- absorption spectra and RP-HPLC of extracted flavin (OYERo2 [3]): The type of flavin cofactor was identified as FMN using RP-HPLC

- stoichiometry N [4]: 2
- stoichiometry N [5]: 4
- stoichiometry N [6]: 2
Molecule: OYERo2, ene-reductase (old yellow enzyme) from Rhodococcus opacus 1CP
